In ChEMBL document CHEMBL1124242, “Renin inhibitors. Dipeptide analogues of angiotensinogen utilizing a dihydroxyethylene transition-state mimic at the scissile bond to impart greater inhibitory potency” (J Med Chem, 1988):

Target: T1, Renin (Homo sapiens, UniProt P00797)
T1 sequence (P00797 whole entry): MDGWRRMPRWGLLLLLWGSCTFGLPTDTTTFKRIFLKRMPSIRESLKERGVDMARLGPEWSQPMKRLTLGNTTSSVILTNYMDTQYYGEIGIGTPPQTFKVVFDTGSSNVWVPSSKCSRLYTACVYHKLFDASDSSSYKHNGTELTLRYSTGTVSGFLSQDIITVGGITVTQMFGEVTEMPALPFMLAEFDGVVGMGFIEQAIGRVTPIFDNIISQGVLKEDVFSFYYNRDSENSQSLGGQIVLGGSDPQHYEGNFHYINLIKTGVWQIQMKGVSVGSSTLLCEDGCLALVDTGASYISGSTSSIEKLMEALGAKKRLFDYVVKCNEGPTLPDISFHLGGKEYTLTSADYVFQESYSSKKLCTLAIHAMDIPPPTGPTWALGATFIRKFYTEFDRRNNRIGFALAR
Assay: In vitro inhibitory activity was tested against purified human renal renin

SMILES	IC50 [nM]
CC(C)COC(=O)N[C@@H](Cc1ccccc1)C(=O)N[C@@H](Cc1c[nH]cn1)C(=O)N[C@@H](CC1CCCCC1)[C@@H](O)[C@@H](O)CC(C)C	1
CC(C)C[C@H](O)[C@H](O)[C@H](CC1CCCCC1)NC(=O)[C@H](Cc1c[nH]cn1)NC(=O)[C@H](CC1C=NC=N1)NC(=O)OC(C)(C)C (stereo partly specified)	55
CC(C)C[C@H](O)[C@H](O)[C@H](CC1CCCCC1)NC(=O)[C@H](Cc1c[nH]cn1)NC(=O)[C@H](C)NC(=O)OC(C)(C)C	200
CC(C)CN[C@@H](Cc1ccccc1)C(=O)N[C@@H](Cc1c[nH]cn1)C(=O)N[C@@H](CC1CCCCC1)[C@@H](O)[C@@H](O)CC(C)C	0.3
CC(C)C[C@H](NC(=O)[C@H](Cc1ccccc1)NC(=O)OC(C)(C)C)C(=O)N[C@@H](CC1CCCCC1)[C@@H](O)[C@@H](O)CC(C)C	0.5
CC(C)C[C@H](O)[C@H](O)[C@H](CC1CCCCC1)NC(=O)[C@H](Cn1cccn1)NC(=O)[C@H](Cc1ccccc1)NC(=O)OC(C)(C)C	1
CC(C)C[C@H](NC(=O)[C@H](Cc1c[nH]cn1)NC(=O)[C@H](Cc1ccccc1)NC(=O)OC(C)(C)C)[C@@H](O)[C@@H](O)CC(C)C	11
CCOC(=O)N[C@@H](Cc1cccc2ccccc12)C(=O)N[C@@H](CC(C)C)C(=O)N[C@@H](CC1CCCCC1)[C@@H](O)[C@@H](O)CC(C)C	0.25
CC(C)CC[C@H](O)[C@H](CC1CCCCC1)NC(=O)[C@H](Cc1c[nH]cn1)NC(=O)[C@H](Cc1ccccc1)NC(=O)OC(C)(C)C	10
CC(C)C[C@H](O)[C@H](O)[C@H](CC1CCCCC1)NC(=O)[C@H](Cc1c[nH]cn1)NC(=O)[C@H](Cc1ccccc1)NC(=O)C1CCCCC1	0.7
CCOC(=O)N[C@@H](Cc1ccccc1)C(=O)N[C@@H](Cc1c[nH]cn1)C(=O)N[C@@H](CC1CCCCC1)[C@@H](O)[C@@H](O)CC	0.5
CCOC(=O)N[C@@H](CC(C)C)C(=O)N[C@@H](Cc1c[nH]cn1)C(=O)N[C@@H](CC1CCCCC1)[C@@H](O)[C@@H](O)CC	10
CCOC(=O)N[C@@H](Cc1ccccc1)C(=O)N[C@@H](Cc1ccccc1)C(=O)N[C@@H](CC1CCCCC1)[C@@H](O)[C@@H](O)CC(C)C	1
CC[C@H](O)[C@H](O)[C@H](CC1CCCCC1)NC(=O)[C@H](Cc1c[nH]cn1)NC(=O)[C@H](Cc1ccccc1)NC(=O)OC(C)(C)C	0.6
CCOC(=O)N[C@@H](Cc1ccc(OC)cc1)C(=O)N[C@@H](CC(C)C)C(=O)N[C@@H](CC1CCCCC1)[C@@H](O)[C@@H](O)CC(C)C	0.2
CC(C)CC[C@H](O)[C@H](O)[C@H](CC1CCCCC1)NC(=O)[C@H](Cc1c[nH]cn1)NC(=O)[C@H](Cc1ccccc1)NC(=O)OC(C)(C)C	4
CCOC(=O)N[C@@H](Cc1ccccc1)C(=O)N[C@@H](CC(C)C)C(=O)N[C@@H](CC1CCCCC1)[C@@H](O)[C@@H](O)CC	1.1
CC(C)CC[C@H](O)[C@H](CC(C)C)NC(=O)[C@H](Cc1c[nH]cn1)NC(=O)[C@H](Cc1ccccc1)NC(=O)OC(C)(C)C	1500
COc1ccc(C[C@H](NC(=O)OC(C)(C)C)C(=O)N[C@@H](Cc2c[nH]cn2)C(=O)N[C@@H](CC2CCCCC2)[C@@H](O)[C@@H](O)CC(C)C)cc1	1
CCOC(=O)N[C@@H](Cc1ccc(I)cc1)C(=O)N[C@@H](CC(C)C)C(=O)N[C@@H](CC1CCCCC1)[C@@H](O)[C@@H](O)CC(C)C	2.5
CC(C)C[C@H](O)[C@H](O)[C@H](CC1CCCCC1)NC(=O)[C@H](Cc1c[nH]cn1)NC(=O)[C@H](Cc1ccccc1)NC(=O)CC(C)(C)C	1
